Common to all, as to test: NCI-60 cell line screen, 48 h
Assay [1] has as its system 786-0.
Assay [2] deals with A549.
The test system of assay [3] is HCT-15.
In assay [4] the test system is HOP-62.
Assay [5] deals with HT-29.
The test system of assay [6] is IGROV-1.
Assay [7] deals with KM12.
For assay [8], the system named is MDA-MB-231.
For assay [9], the system named is Malme-3M.
For assay [10], the system named is NCI-H226.
Assay [11] concerns OVCAR-4.
For assay [12], the system named is RXF 393.
In assay [13] the test system is SF-295.
Assay [14] relates to SK-MEL-5.
In assay [15] the test system is SN12C.
For assay [16], the system named is SNB-19.
Assay [17] relates to SR.
In assay [18] the test system is SW-620.
The subject of assay [19] is U-251.
Assay [20] relates to A498.

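48-hour exposure; five concentrations; linearly interpolated endpoints. At the GI50, growth is halved.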 Active and inactive are the calls of the source. Rule as the data show it: active = GI50 up to about 1.1 µM and inactive = higher.

Consider four molecules from ChEMBL document CHEMBL1201862, “PubChem BioAssay data set” (2004).

For the molecule `COC(=O)C(Cc1ccccc1)NC(=O)C(CCCNC(=N)N)NC(=O)OCc1ccccc1` (centres undefined), the GI50 in assay [1] was > 100 µM (inactive); in assay [2], > 100 µM (inactive); in [3] it was above 100 µM; in assay [4], > 100 µM (inactive); in [5] it was > 100 µM (inactive); in assay [6], > 100 µM (inactive). Moreover, the GI50 in [7], in assay [8], in assay [9], in assay [10], in assay [11] and in [12] was > 100 µM (inactive) in each case. Besides, the GI50 in [13], in assay [14], in [15], in assay [16], in assay [17] and in [18] was > 100 µM (inactive) in each case. In addition, in assay [19], the GI50 was > 100 µM (inactive).

Take `CN1C2CC(=O)CC1[C@@H]1OC(c3ccccc3)O[C@H]21` (some centres undefined): the GI50 in assay [1] is > 100 µM (inactive); in [2], > 100 µM (inactive); in [3], above 100 µM; in [4], > 100 µM (inactive); in assay [5] it was > 100 µM (inactive); in assay [6], > 100 µM (inactive). Further, the GI50 in assay [7], in assay [8], in assay [9], in [10], in assay [11] and in assay [12] was > 100 µM (inactive) in each case. For the same molecule, the GI50 in assay [13], in [14], in assay [15], in assay [16], in assay [17] and in assay [18] was > 100 µM (inactive) throughout. In [19], the GI50 is > 100 µM (inactive).

`COc1ccc(-n2c(=O)n(C)c(=O)n2-c2ccc(OC)cc2)cc1`: the GI50 was > 100 µM (inactive) in assay [1]; > 100 µM (inactive) in assay [20]; > 100 µM (inactive) in assay [2]; above 100 µM in assay [3]; > 100 µM (inactive) in [4]; > 100 µM (inactive) in assay [5]. Further, the GI50 in [6], in [7], in assay [8], in assay [10], in [13] and in assay [14] was > 100 µM (inactive) each time. Also, the GI50 in assay [15], in [16], in assay [17], in [18] and in [19] was > 100 µM (inactive) each time.

Consider `COc1ccc(C2C3CCc4ccccc4C3=NN2S(=O)(=O)c2ccc(/C=C/C(=O)O)cc2)cc1` (centres undefined), for which the GI50 was 1.82 µM (inactive) in assay [1]; 5.11 µM (inactive) in [2]; 0.188 µM in [3]; 5.61 µM (inactive) in [4]; 3.33 µM (inactive) in assay [5]; 0.755 µM (active) in [6]. For the same molecule, the GI50 in [7] was 1.82 µM (inactive); in [8] it was 4.84 µM (inactive); in [9] it was 2.77 µM (inactive); in assay [10], 5.98 µM (inactive); in assay [11] it was 7.23 µM (inactive); in assay [12], 3.15 µM (inactive). The GI50 in assay [13] is 2.93 µM (inactive); in assay [14] it was 4.01 µM (inactive); in assay [15], 6.25 µM (inactive); in assay [16], 7.29 µM (inactive); in assay [17], 0.869 µM (active); in assay [18], 3.18 µM (inactive). Besides, the GI50 in assay [19] was 3.21 µM (inactive).
